# Measurements reported in PubChem BioAssay AID1963977 (Molecular Pharmacology Branch, DTP, NCI, 2024).
# System: 624824-186-R-J3-PDC multicell spheroids, viability
# Experiment: Anticancer human tumor 624824-186-R-J3-PDC patient-derived colon adenocarcinoma cell line growth inhibition [PI3K]
# Conditions: for IC50: curve of first compound; for viability, T/C: stronger effect = lower value
# Summary of the method: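 High-throughput combination screen: PI3K inhibitors crossed with targeted small molecules on complex spheroids of tumor cells, HUVEC and MSCs at 37 degrees C, 5% CO2. Top concentration was at or near clinical Cmax (otherwise 10 microM), with half-log decrements.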
# [1] = second compound 0.00316 µM, first compound 0.0316 µM
# [2] = second compound 0.00316 µM, first compound 0.1 µM
# [3] = second compound 0.00316 µM, first compound 0.316 µM
# [4] = second compound 0.00316 µM, first compound 1 µM
# [5] = second compound 0.00316 µM, first compound 3.16 µM
# [6] = second compound 0.00316 µM, first compound 10 µM
# [7] = second compound 0.01 µM, first compound 0.0316 µM
# [8] = second compound 0.01 µM, first compound 0.1 µM
# [9] = second compound 0.01 µM, first compound 0.316 µM
# [10] = second compound 0.01 µM, first compound 1 µM
# [11] = second compound 0.01 µM, first compound 3.16 µM
# [12] = second compound 0.01 µM, first compound 10 µM
# [13] = second compound 0.0316 µM, first compound 0.0316 µM
# [14] = second compound 0.0316 µM, first compound 0.1 µM
# [15] = second compound 0.0316 µM, first compound 0.316 µM
# [16] = second compound 0.0316 µM, first compound 1 µM
# [17] = second compound 0.0316 µM, first compound 3.16 µM
# [18] = second compound 0.0316 µM, first compound 10 µM
# [19] = second compound 0.1 µM, first compound 0.0316 µM
# [20] = second compound 0.1 µM, first compound 0.1 µM
# [21] = second compound 0.1 µM, first compound 0.316 µM
# [22] = second compound 0.1 µM, first compound 1 µM
# [23] = second compound 0.1 µM, first compound 3.16 µM
# [24] = second compound 0.1 µM, first compound 10 µM
# [25] = second compound 0.316 µM, first compound 0.0316 µM
# [26] = second compound 0.316 µM, first compound 0.1 µM
# [27] = second compound 0.316 µM, first compound 0.316 µM
# [28] = second compound 0.316 µM, first compound 1 µM
# [29] = second compound 0.316 µM, first compound 3.16 µM
# [30] = second compound 0.316 µM, first compound 10 µM
# [31] = second compound 1 µM, first compound 0.0316 µM
# [32] = second compound 1 µM, first compound 0.1 µM
# [33] = second compound 1 µM, first compound 0.316 µM
# [34] = second compound 1 µM, first compound 1 µM
# [35] = second compound 1 µM, first compound 3.16 µM
# [36] = second compound 1 µM, first compound 10 µM
# 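Further: spheroids exposed to agents for seven days before luminescence read.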
# 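Wherever viability, T/C is given: luminescent signal used as a stand-in for spheroid viability; percent viability relative to DMSO vehicle control wells taken as 100%.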
structure (smiles),measurement,setting,value
CC1(C)CCC(Nc2ncc(C(F)(F)F)c(-c3c[nH]c4c(P(C)(C)=O)c(C#N)ccc34)n2)CN1 (stereo unspecified) + CC(Nc1ccc2c(c1)OCCn1cc(N3C(=O)OCC3C(F)F)nc1-2)C(N)=O,IC50,second compound 0.00316 µM,5.18 µM
same,IC50,second compound 0.01 µM,5.16 µM
same,IC50,second compound 0.0316 µM,5.28 µM
same,IC50,second compound 0.1 µM,4.79 µM
same,IC50,second compound 0.316 µM,4.54 µM
same,IC50,second compound 1 µM,3.18 µM
same,"viability, T/C",[1],106%
same,"viability, T/C",[2],90.5%
same,"viability, T/C",[3],89.4%
same,"viability, T/C",[4],89.6%
same,"viability, T/C",[5],85.5%
same,"viability, T/C",[6],2.71%
same,"viability, T/C",[7],104%
same,"viability, T/C",[8],95.6%
same,"viability, T/C",[9],92.7%
same,"viability, T/C",[10],96.3%
same,"viability, T/C",[11],84.2%
same,"viability, T/C",[12],3.61%
same,"viability, T/C",[13],99.4%
same,"viability, T/C",[14],88.7%
same,"viability, T/C",[15],89.4%
same,"viability, T/C",[16],93.5%
same,"viability, T/C",[17],87.8%
same,"viability, T/C",[18],3.03%
same,"viability, T/C",[19],90%
same,"viability, T/C",[20],85.5%
same,"viability, T/C",[21],89.8%
same,"viability, T/C",[22],85.7%
same,"viability, T/C",[23],76.5%
same,"viability, T/C",[24],2.82%
same,"viability, T/C",[25],81.8%
same,"viability, T/C",[26],64.8%
same,"viability, T/C",[27],68.2%
same,"viability, T/C",[28],76.5%
same,"viability, T/C",[29],71.8%
same,"viability, T/C",[30],2.32%
same,"viability, T/C",[31],54.9%
same,"viability, T/C",[32],56.1%
same,"viability, T/C",[33],57%
same,"viability, T/C",[34],53.4%
same,"viability, T/C",[35],50.5%
same,"viability, T/C",[36],2.4%
CC1(C)CCC(Nc2ncc(C(F)(F)F)c(-c3c[nH]c4c(P(C)(C)=O)c(C#N)ccc34)n2)CN1 (stereo unspecified) + CC(Nc1ncnc2nc[nH]c12)c1cc2cccc(Cl)c2c(=O)n1-c1ccccc1,IC50,second compound 0.0316 µM,5.14 µM
same,IC50,second compound 0.1 µM,5.36 µM
same,IC50,second compound 0.316 µM,5.34 µM
same,IC50,second compound 1 µM,5.19 µM
same,IC50,second compound 3.16 µM,5.01 µM
same,IC50,second compound 10 µM,3.65 µM
same,"viability, T/C",[13],99%
same,"viability, T/C",[14],85.7%
same,"viability, T/C",[15],92.2%
same,"viability, T/C",[16],92.5%
same,"viability, T/C",[17],83.8%
same,"viability, T/C",[18],3.64%
same,"viability, T/C",[19],115%
same,"viability, T/C",[20],89%
same,"viability, T/C",[21],89.2%
same,"viability, T/C",[22],99%
same,"viability, T/C",[23],89%
same,"viability, T/C",[24],3.93%
same,"viability, T/C",[25],99.2%
same,"viability, T/C",[26],92.4%
same,"viability, T/C",[27],82.2%
same,"viability, T/C",[28],85.1%
same,"viability, T/C",[29],88.1%
same,"viability, T/C",[30],4.29%
same,"viability, T/C",[31],90.8%
same,"viability, T/C",[32],86.2%
same,"viability, T/C",[33],87.3%
same,"viability, T/C",[34],95.5%
same,"viability, T/C",[35],84.8%
same,"viability, T/C",[36],3.92%
same,"viability, T/C","second compound 3.16 µM, first compound 0.0316 µM",79.5%
same,"viability, T/C","second compound 3.16 µM, first compound 0.1 µM",82.5%
same,"viability, T/C","second compound 3.16 µM, first compound 0.316 µM",78%
same,"viability, T/C","second compound 3.16 µM, first compound 1 µM",80.9%
same,"viability, T/C","second compound 3.16 µM, first compound 3.16 µM",82.3%
same,"viability, T/C","second compound 3.16 µM, first compound 10 µM",4.17%
same,"viability, T/C","second compound 10 µM, first compound 0.0316 µM",66.5%
same,"viability, T/C","second compound 10 µM, first compound 0.1 µM",63.2%
same,"viability, T/C","second compound 10 µM, first compound 0.316 µM",63.2%
same,"viability, T/C","second compound 10 µM, first compound 1 µM",60.9%
same,"viability, T/C","second compound 10 µM, first compound 3.16 µM",57%
same,"viability, T/C","second compound 10 µM, first compound 10 µM",3.67%
CC(Cn1ccc(-c2ccc(C#N)c(Cl)c2)n1)NC(=O)c1cc(C(C)O)[nH]n1 (stereo unspecified) + COc1c(OCCCN2CCOCC2)ccc2c3n(c(=NC(=O)c4cnc(N)nc4)nc12)CCN3,IC50,second compound 0.00316 µM,> 10 µM
same,IC50,second compound 0.01 µM,> 10 µM
same,IC50,second compound 0.0316 µM,> 10 µM
same,IC50,second compound 0.1 µM,> 10 µM
same,IC50,second compound 0.316 µM,0.239 µM
same,IC50,second compound 1 µM,< 0.0316 µM
same,"viability, T/C",[1],106%
same,"viability, T/C",[2],98.6%
same,"viability, T/C",[3],101%
same,"viability, T/C",[4],96.3%
same,"viability, T/C",[5],103%
same,"viability, T/C",[6],98.2%
same,"viability, T/C",[7],101%
same,"viability, T/C",[8],93.2%
same,"viability, T/C",[9],98.2%
same,"viability, T/C",[10],103%
same,"viability, T/C",[11],108%
same,"viability, T/C",[12],105%
same,"viability, T/C",[13],96.6%
same,"viability, T/C",[14],97.4%
same,"viability, T/C",[15],87.3%
same,"viability, T/C",[16],95.6%
same,"viability, T/C",[17],91.9%
same,"viability, T/C",[18],84.5%
same,"viability, T/C",[19],74.5%
same,"viability, T/C",[20],79.9%
same,"viability, T/C",[21],78%
same,"viability, T/C",[22],76.6%
same,"viability, T/C",[23],77%
same,"viability, T/C",[24],68.7%
same,"viability, T/C",[25],54.6%
same,"viability, T/C",[26],50.1%
same,"viability, T/C",[27],49.8%
same,"viability, T/C",[28],48.2%
same,"viability, T/C",[29],40.9%
same,"viability, T/C",[30],38.8%
same,"viability, T/C",[31],26.9%
same,"viability, T/C",[32],28.1%
same,"viability, T/C",[33],28.3%
same,"viability, T/C",[34],28.2%
same,"viability, T/C",[35],24.9%
same,"viability, T/C",[36],23.6%
